This note sets out measurements from patent publication US20240270762A1, “PENICILLIN-BINDING PROTEIN INHIBITORS” (priority 2021, published 2024).

pEC50, pIC50: −log10 of the molar value. Values after ≈ are worked out from the molar mass of the structure shown.

The target of assay [1] is T1, PBP3 from Escherichia coli (K-12) (Escherichia coli, UniProt P0AD68).
T1 construct: made in house
The experiment in a line: Bocillin-FL fluorescence polarization competition binding, E. coli PBP3. The gist of the method: (§1)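 Purified PBPs pre-incubated with inhibitor (E. coli PBP3 1.5 μM, 30 min; P. aeruginosa PBP3 0.75 μM, A. baumannii PBP1a 1 μM and PBP3 0.2 μM, 15 min), then Bocillin-FL 0.1 μM (0.05 μM for PBP1a) added; FP read up to 60 min. EC50 = concentration halving bound Bocillin-FL.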
(In general: Fluorescence polarisation rises when a labelled molecule tumbles more slowly, as on binding a larger partner.)

Assay [2] addresses T2, PBP3 from Pseudomonas aeruginosa (PAO1) (Pseudomonas aeruginosa, UniProt G3XD46).
T2 construct: made in house
Put plainly: Bocillin-FL fluorescence polarization competition binding, P. aeruginosa PBP3. The conditions noted are these: Binding affinity to P. aeruginosa PBP3; fluorescence polarization competition binding assay using Bocillin-FL; read-out: P. aeruginosa PBP3 Potency. The gist of the method:
as §1

In assay [3] the target is T3, PBP3 from Acinetobacter baumannii (ATCC 19606) (Acinetobacter baumannii, UniProt A0ABX6CK25).
T3 sequence (A0ABX6CK25 64-610): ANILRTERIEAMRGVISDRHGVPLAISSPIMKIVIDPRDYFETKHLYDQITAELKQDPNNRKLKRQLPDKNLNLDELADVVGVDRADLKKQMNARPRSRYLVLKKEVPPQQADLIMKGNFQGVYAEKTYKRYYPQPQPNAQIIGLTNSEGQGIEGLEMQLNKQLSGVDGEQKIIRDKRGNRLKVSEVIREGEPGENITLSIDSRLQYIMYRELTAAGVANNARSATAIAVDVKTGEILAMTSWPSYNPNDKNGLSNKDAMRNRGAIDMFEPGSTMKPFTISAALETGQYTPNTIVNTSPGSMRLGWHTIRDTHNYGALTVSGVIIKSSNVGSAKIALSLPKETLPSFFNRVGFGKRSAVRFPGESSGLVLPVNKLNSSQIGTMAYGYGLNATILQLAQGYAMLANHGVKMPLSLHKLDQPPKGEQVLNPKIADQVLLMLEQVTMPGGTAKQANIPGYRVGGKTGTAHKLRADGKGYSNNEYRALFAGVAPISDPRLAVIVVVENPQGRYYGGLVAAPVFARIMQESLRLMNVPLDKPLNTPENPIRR
The experiment in a line: Bocillin-FL fluorescence polarization competition binding, A. baumannii PBP3. The conditions noted are these: fluorescence polarization competition binding assay using Bocillin-FL; read-out: A. baumannii PBP3 Potency. The gist of the method:
as §1

In assay [4] the test system is P. aeruginosa (ΔmexAB-oprM). The experiment in a line: Broth microdilution MIC in iron-depleted CAMHB (IDM). The format is cell-based. The conditions noted are these: Pseudomonas aeruginosa; iron-depleted CAMHB (IDM); […]; read-out: Minimum inhibitory concentration, P. aeruginosa ΔmexAB-oprM. Background: Dilution methods test growth across graded concentrations, often in twofold steps.

The subject of the next assay is A. baumannii CDC-0045. The experiment in a line: microbe, parasite or virus in culture. The format is cell-based. The conditions noted are these: Acinetobacter baumannii, CDC0045, read-out: MIC, A. baumannii CDC-0045.
A further assay concerns P. aeruginosa CDC-0090. The experiment in a line: microbe, parasite or virus in culture. The conditions noted are these: Pseudomonas aeruginosa, CDC0090, read-out: Minimum inhibitory concentration, P. aeruginosa CDC-0090. In kind it is cell-based.
For a further assay, the system named is P. aeruginosa CDC-0054. Put plainly: microbe, parasite or virus in culture. The conditions noted are these: Pseudomonas aeruginosa, CDC0054, read-out: Minimum inhibitory concentration, P. aeruginosa CDC-0054. The format is cell-based.
The next assay relates to A. baumannii 1258916. The experiment in a line: microbe, parasite or virus in culture. The conditions noted are these: Acinetobacter baumannii, 1258916, read-out: MIC, A. baumannii 1258916. In kind it is cell-based, Acinetobacter baumannii.
Assay [5] relates to B. thailandensis ATCC 700388. Put plainly: microbe, parasite or virus in culture. The format is cell-based. Particulars: Burkholderia thailandensis, ATCC700388, read-out: Minimum inhibitory concentration (MIC), B. thailandensis ATCC 700388.
For the next assay, the system named is A. baumannii ATCC 17978. Put plainly: microbe, parasite or virus in culture. The format is cell-based. Particulars: Acinetobacter baumannii, ATCC17978, read-out: MIC, A. baumannii ATCC 17978.

T1 sequence (P0AD68 1-577): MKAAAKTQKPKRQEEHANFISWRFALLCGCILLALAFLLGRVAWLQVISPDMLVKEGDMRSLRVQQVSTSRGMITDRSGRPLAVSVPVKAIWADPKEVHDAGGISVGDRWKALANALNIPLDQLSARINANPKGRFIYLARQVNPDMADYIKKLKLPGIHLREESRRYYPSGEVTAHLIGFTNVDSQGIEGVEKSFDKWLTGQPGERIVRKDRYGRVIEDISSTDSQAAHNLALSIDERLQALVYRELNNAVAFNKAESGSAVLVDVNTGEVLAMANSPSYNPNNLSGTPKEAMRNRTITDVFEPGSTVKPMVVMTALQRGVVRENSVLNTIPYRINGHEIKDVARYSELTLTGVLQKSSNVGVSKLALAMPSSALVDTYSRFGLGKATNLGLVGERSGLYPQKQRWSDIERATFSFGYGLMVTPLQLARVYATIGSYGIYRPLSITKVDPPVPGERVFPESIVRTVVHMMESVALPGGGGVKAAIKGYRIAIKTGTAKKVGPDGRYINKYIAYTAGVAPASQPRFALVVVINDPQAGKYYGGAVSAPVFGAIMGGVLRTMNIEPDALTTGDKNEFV
T2 sequence (G3XD46 whole entry): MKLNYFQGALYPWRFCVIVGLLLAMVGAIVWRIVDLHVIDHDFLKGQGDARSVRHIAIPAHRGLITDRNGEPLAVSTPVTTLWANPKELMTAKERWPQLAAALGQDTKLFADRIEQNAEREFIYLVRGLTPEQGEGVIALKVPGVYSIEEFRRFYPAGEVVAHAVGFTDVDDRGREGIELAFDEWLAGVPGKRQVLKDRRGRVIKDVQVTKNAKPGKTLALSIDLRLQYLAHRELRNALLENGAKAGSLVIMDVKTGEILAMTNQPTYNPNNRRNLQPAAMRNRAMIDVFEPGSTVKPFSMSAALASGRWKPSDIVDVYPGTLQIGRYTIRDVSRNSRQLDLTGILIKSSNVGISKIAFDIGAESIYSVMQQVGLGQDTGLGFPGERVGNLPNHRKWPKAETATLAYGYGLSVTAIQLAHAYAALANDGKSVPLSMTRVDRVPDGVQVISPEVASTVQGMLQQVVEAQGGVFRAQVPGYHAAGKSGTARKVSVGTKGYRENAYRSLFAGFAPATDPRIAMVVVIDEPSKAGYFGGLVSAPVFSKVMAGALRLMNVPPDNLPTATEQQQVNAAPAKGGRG

The term pEC50 denotes the EC50 on a negative log10 scale, so that one unit is a factor of ten. A low value points to a large EC50. Regarding `CS(=O)(=O)N1CCN(C(=O)N[C@H](C(=O)N[C@H]2Cc3cccc(C(=O)O)c3OB2O)c2ccc(P(=O)(O)O)cc2)C1=O` (single isomer, unassigned) [Example 5], the negative logarithm of the EC50 (pEC50) in assay [1] is 3.60 to 4.30. Also, the pIC50 in assay [2] was 4.30 to 5.00.

As to `O=C(O)c1c(F)ccc2c1OB(O)[C@@H](NC(=O)[C@@H](NC(=O)N1CCN(C3CCN(C(=O)Nc4ccc(O)cc4)CC3)C1=O)c1cc(F)c(O)c(O)c1Cl)C2` (single isomer, unassigned) [Example 467], the pIC50 in assay [3] and in assay [2] was above 5.00 in each case. Further, the MIC in assay [4] is below 1 µg/mL; in the assay on A. baumannii CDC-0045 it was below 1 µg/mL; in the assay with P. aeruginosa CDC-0090, below 1 µg/mL; with P. aeruginosa CDC-0054, 2 to 4 µg/mL (≈ 2.59 to 5.18 µM); with A. baumannii 1258916 it was below 1 µg/mL; in assay [5], below 1 µg/mL. The MIC in the assay with A. baumannii ATCC 17978 was below 1 µg/mL.

Turning to `O=C(O)c1c(F)ccc2c1OB(O)[C@@H](NC(=O)[C@H](NC(=O)N1CCN(C3CCN(C(=O)Nc4ccc(O)cc4)CC3)C1=O)c1cc(F)c(O)c(O)c1Cl)C2` (single isomer, unassigned) [Example 468], the pIC50 in assay [3] and in assay [2] was above 5.00 throughout. The MIC (in [4]; in the assay on A. baumannii CDC-0045; with P. aeruginosa CDC-0090; in the assay on P. aeruginosa CDC-0054; in the assay with A. baumannii 1258916; in [5]) was below 1 µg/mL in each case. Also, in the assay on A. baumannii ATCC 17978, the MIC was below 1 µg/mL.

In assay [1], `CCN1CCN(C(=O)NC(C(=O)N[C@H]2Cc3cccc(C(=O)O)c3OB2O)c2ccc(P(=O)(O)O)cc2F)C(=O)C1=O` (stereo partly drawn) [Example 1, (3R)-3-(2-(4-ethyl-2,3-dioxopiperazine-1-carboxamido)-2-(2-fluoro-4-phosphonophenyl)acetamido)-2-hydroxy-3,4-dihydro-2H-benzo[e][1,2]oxaborinine-8-carboxylic acid] showed a negative logarithm of the EC50 (pEC50) above 5.00. Moreover, the pIC50 in [2] was above 5.00.

Turning to `CCN1CCN(C(=O)NC(C(=O)N[C@H]2Cc3cccc(C(=O)O)c3OB2O)c2cc(P(=O)(O)O)ccc2F)C(=O)C1=O` (stereo partly drawn) [Example 2, (3R)-3-(2-(4-ethyl-2,3-dioxopiperazine-1-carboxamido)-2-(2-fluoro-5-phosphonophenyl)acetamido)-2-hydroxy-3,4-dihydro-2H-benzo[e][1,2]oxaborinine-8-carboxylic acid], in [1], the pEC50 was above 5.00. In addition, in [2], the pIC50 is above 5.00.

`NCCN1CCN(C(=O)NC(C(=O)N[C@H]2Cc3cccc(C(=O)O)c3OB2O)c2ccc(P(=O)(O)O)cc2)C(=O)C1=O` (stereo partly drawn) [Example 3, (3R)-3-(2-(4-(2-aminoethyl)-2,3-dioxopiperazine-1-carboxamido)-2-(4-phosphonophenyl)acetamido)-2-hydroxy-3,4-dihydro-2H-benzo[e][1,2]oxaborinine-8-carboxylic acid] gave a negative logarithm of the EC50 (pEC50) in [1] of 4.30 to 5.00. The pIC50 in assay [2] was 4.30 to 5.00.

Take `O=C(O)c1cccc2c1OB(O)[C@@H](NC(=O)C(NC(=O)N1CCN(CC(F)(F)F)C(=O)C1=O)c1ccc(P(=O)(O)O)cc1)C2` (stereo partly drawn) [Example 4, (3R)-3-(2-(2,3-dioxo-4-(2,2,2-trifluoroethyl)piperazine-1-carboxamido)-2-(4-phosphonophenyl)acetamido)-2-hydroxy-3,4-dihydro-2H-benzo[e][1,2]oxaborinine-8-carboxylic acid]: the negative logarithm of the EC50 (pEC50) in assay [1] is above 5.00. In addition, in [2], the pIC50 was above 5.00.

With `O=C(O)c1c(F)ccc2c1OB(O)[C@@H](NC(=O)C(NC(=O)N1CCN(C3CCN(C(=O)Cc4cccc(O)c4)CC3)C(=O)C1=O)c1cc(F)c(O)c(O)c1Cl)C2` (stereo partly drawn) [Example 474, (3R)-3-(2-(2-chloro-5-fluoro-3,4-dihydroxyphenyl)-2-(4-(1-(2-(3-hydroxyphenyl)acetyl)piperidin-4-yl)-2,3-dioxopiperazine-1-carboxamido)acetamido)-7-fluoro-2-hydroxy-3,4-dihydro-2H-benzo[e][1,2]oxaborinine-8-carboxylic acid], the pIC50 in [3] and in [2] was above 5.00 throughout. Moreover, the MIC in assay [4] was below 1 µg/mL; with A. baumannii CDC-0045, below 1 µg/mL; in the assay on P. aeruginosa CDC-0090 it was below 1 µg/mL; in the assay on P. aeruginosa CDC-0054, below 1 µg/mL; with A. baumannii 1258916 it was below 1 µg/mL; in assay [5], 2 to 4 µg/mL (≈ 2.5 to 5 µM). The MIC with A. baumannii ATCC 17978 was below 1 µg/mL.

As to `O=C(O)c1c(F)ccc2c1OB(O)[C@@H](NC(=O)C(NC(=O)N1CCN(CC3CCN(C(=O)c4cccc(O)c4)CC3)C(=O)C1=O)c1cc(F)c(O)c(O)c1Cl)C2` (stereo partly drawn) [Example 475, (3R)-3-(2-(2-chloro-5-fluoro-3,4-dihydroxyphenyl)-2-(4-((1-(3-hydroxybenzoyl)piperidin-4-yl)methyl)-2,3-dioxopiperazine-1-carboxamido)acetamido)-7-fluoro-2-hydroxy-3,4-dihydro-2H-benzo[e][1,2]oxaborinine-8-carboxylic acid], the pIC50 in assay [3] and in [2] was above 5.00 each time. Besides, the MIC (in assay [4]; in the assay on A. baumannii CDC-0045; in the assay on P. aeruginosa CDC-0090; in the assay on P. aeruginosa CDC-0054; with A. baumannii 1258916; in assay [5]) was below 1 µg/mL each time. The MIC with A. baumannii ATCC 17978 is below 1 µg/mL.

As to `O=C(O)c1c(F)ccc2c1OB(O)[C@@H](NC(=O)C(NC(=O)N1CCN(C3CCN(C(=O)c4ccc(O)cc4O)CC3)C(=O)C1=O)c1cc(F)c(O)c(O)c1Cl)C2` (stereo partly drawn) [Example 476, (3R)-3-(2-(2-chloro-5-fluoro-3,4-dihydroxyphenyl)-2-(4-(1-(2,4-dihydroxybenzoyl)piperidin-4-yl)-2,3-dioxopiperazine-1-carboxamido)acetamido)-7-fluoro-2-hydroxy-3,4-dihydro-2H-benzo[e][1,2]oxaborinine-8-carboxylic acid], the pIC50 in assay [3] and in [2] was above 5.00 in each case. The MIC (in assay [4]; in the assay on A. baumannii CDC-0045; with P. aeruginosa CDC-0090; in the assay with P. aeruginosa CDC-0054; in the assay on A. baumannii 1258916; in assay [5]) was below 1 µg/mL each time. The MIC in the assay on A. baumannii ATCC 17978 is below 1 µg/mL.

As to `O=C(O)c1c(F)ccc2c1OB(O)[C@@H](NC(=O)C(NC(=O)N1CCN(CC3CCN(C(=O)Nc4cccc(O)c4)CC3)C(=O)C1=O)c1cc(F)c(O)c(O)c1Cl)C2` (stereo partly drawn) [Example 477, (3R)-3-(2-(2-chloro-5-fluoro-3,4-dihydroxyphenyl)-2-(4-((1-((3-hydroxyphenyl)carbamoyl)piperidin-4-yl)methyl)-2,3-dioxopiperazine-1-carboxamido)acetamido)-7-fluoro-2-hydroxy-3,4-dihydro-2H-benzo[e][1,2]oxaborinine-8-carboxylic acid], the pIC50 in assay [3] and in [2] was above 5.00 each time. Moreover, the MIC (in assay [4]; with A. baumannii CDC-0045; in the assay with P. aeruginosa CDC-0090; in the assay on P. aeruginosa CDC-0054; in the assay with A. baumannii 1258916; in assay [5]) was below 1 µg/mL each time. Moreover, the MIC in the assay on A. baumannii ATCC 17978 is below 1 µg/mL.

On to `O=C(O)c1c(F)ccc2c1OB(O)[C@@H](NC(=O)C(NC(=O)N1CCN(C3CCN(C(=O)Nc4cccc(O)c4F)CC3)C(=O)C1=O)c1cc(F)c(O)c(O)c1Cl)C2` (stereo partly drawn) [Example 478, (3R)-3-(2-(2-chloro-5-fluoro-3,4-dihydroxyphenyl)-2-(4-(1-((2-fluoro-3-hydroxyphenyl)carbamoyl)piperidin-4-yl)-2,3-dioxopiperazine-1-carboxamido)acetamido)-7-fluoro-2-hydroxy-3,4-dihydro-2H-benzo[e][1,2]oxaborinine-8-carboxylic acid], for which the pIC50 in assay [3] and in assay [2] was above 5.00 each time. In addition, the MIC in assay [4] was below 1 µg/mL; with A. baumannii CDC-0045, below 1 µg/mL; in the assay with P. aeruginosa CDC-0090, 2 to 4 µg/mL (≈ 2.44 to 4.88 µM); with P. aeruginosa CDC-0054, 2 to 4 µg/mL (≈ 2.44 to 4.88 µM); with A. baumannii 1258916, below 1 µg/mL; in assay [5], 2 to 4 µg/mL (≈ 2.44 to 4.88 µM). The MIC with A. baumannii ATCC 17978 was below 1 µg/mL.
